{
  "source": "paper PMC2784637",
  "about": "(Biochemistry, 2009)",
  "target": "T1, cyt bc1 (ubihydroquinone:cytochrome c oxidoreductase) (Rhodobacter capsulatus, UniProt D5ANZ2+D5ANZ3)",
  "T1 sequence (D5ANZ3 2-437)": "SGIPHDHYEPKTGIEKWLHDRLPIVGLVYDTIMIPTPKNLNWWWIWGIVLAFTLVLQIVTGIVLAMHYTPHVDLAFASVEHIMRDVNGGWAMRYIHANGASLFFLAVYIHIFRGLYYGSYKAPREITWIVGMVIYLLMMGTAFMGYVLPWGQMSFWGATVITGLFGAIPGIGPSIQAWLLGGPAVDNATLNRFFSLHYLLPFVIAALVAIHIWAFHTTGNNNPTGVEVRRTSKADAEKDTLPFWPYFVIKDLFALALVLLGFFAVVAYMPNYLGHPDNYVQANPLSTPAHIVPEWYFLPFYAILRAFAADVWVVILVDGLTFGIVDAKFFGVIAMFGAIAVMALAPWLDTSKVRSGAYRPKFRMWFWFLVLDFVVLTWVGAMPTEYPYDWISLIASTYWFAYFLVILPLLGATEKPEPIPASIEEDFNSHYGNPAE",
  "T1 sequence (D5ANZ2 1-191)": "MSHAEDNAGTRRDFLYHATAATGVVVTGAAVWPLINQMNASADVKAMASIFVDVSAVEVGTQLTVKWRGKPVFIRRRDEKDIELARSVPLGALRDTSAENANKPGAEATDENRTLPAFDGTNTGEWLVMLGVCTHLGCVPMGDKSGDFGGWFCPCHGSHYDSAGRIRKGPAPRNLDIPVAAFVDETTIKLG",
  "T1 sequence (D5ANZ4 22-279 partner)": "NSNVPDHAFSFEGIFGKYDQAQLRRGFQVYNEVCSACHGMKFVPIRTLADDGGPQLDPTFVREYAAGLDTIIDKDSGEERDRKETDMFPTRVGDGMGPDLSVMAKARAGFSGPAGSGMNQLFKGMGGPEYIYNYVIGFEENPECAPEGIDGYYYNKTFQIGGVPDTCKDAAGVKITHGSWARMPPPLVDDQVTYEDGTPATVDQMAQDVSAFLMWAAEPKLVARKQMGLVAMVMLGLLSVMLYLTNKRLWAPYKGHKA",
  "assay": "light-activated cyt b reduction and cyt c rereduction kinetics",
  "type": "biochemical",
  "settings": "chromatophore membranes, 10 uM, pH 7.0, Eh 100 mV; Qo site",
  "data": [
    {"smiles": "CO/C(=C/C(N)=O)[C@H](C)[C@H](/C=C/c1csc(-c2csc([C@@H](C)/C=C/C=C/C(C)C)n2)n1)OC", "note": "[myxothiazol]", "values": [
      {"measurement": "light-activated cyt b reduction and cyt c rereduction kinetics", "value": "addition of myxothiazol completely abolished the kinetics by displacing the Qo site occupant"}
    ]}
  ]
}
